The results in this text go back to ChEMBL document CHEMBL1135906 (J Med Chem, 2002).

SMILES strings stand for the structures.

For assay [1], the target named is T1, Prostaglandin G/H synthase 2 (Homo sapiens, UniProt P35354).
T1 sequence (P35354 whole entry): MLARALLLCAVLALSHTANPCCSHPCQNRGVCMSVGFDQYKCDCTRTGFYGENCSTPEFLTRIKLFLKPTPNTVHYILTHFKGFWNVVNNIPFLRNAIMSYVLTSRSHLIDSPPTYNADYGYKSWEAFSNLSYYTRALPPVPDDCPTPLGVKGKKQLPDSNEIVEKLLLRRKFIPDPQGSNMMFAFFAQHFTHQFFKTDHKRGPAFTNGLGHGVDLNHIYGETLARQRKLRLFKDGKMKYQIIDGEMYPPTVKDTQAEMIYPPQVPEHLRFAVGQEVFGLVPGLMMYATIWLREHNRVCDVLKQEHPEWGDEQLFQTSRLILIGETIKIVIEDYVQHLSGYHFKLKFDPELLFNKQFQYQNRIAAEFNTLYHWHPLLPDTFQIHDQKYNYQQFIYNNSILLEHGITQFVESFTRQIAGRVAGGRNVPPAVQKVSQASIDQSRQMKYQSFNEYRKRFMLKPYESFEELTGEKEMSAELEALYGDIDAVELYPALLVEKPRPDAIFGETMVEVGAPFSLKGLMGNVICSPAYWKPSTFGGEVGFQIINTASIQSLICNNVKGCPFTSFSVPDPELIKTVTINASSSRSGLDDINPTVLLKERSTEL
The experiment in a line: Inhibition of human purified Prostaglandin G/H synthase 2.

For assay [2], the target named is Prostaglandin G/H synthase 1 (Homo sapiens, UniProt P23219). The experiment in a line: Inhibition of human purified Prostaglandin G/H synthase 1.
Assay [3] deals with Rattus norvegicus. The experiment in a line: The compound was tested in vivo for activity against adjuvant-induced arthritis in rat after peroral administration. The assay is classed as functional. Conditions: po.
Assay [4] concerns Rattus norvegicus. Description: The compound was tested in vivo for activity against carrageenan induced paw edema in rat after peroral administration. The assay is classed as functional. Conditions: po. In general terms: The carrageenan paw model is a standard test of acute inflammation.
The test system of assay [5] is Rattus norvegicus. The experiment in a line: The compound was tested in vivo for activity against yeast -induced hyperalgesia in rat after peroral administration. Type of assay: functional. Conditions: po.
The test system of assay [6] is Rattus norvegicus. The experiment in a line: The compound was tested in vivo for activity against yeast -induced hyperthermia in rat after peroral administration. Type of assay: functional. Conditions: po.
The test system of assay [7] is Rattus norvegicus. Description: The compound was tested in vivo for gastric ulcerogenic activity in rat after peroral administration. Type of assay: functional, Stomach.
The species entered for assay [8] is Rattus norvegicus. The experiment in a line: animal or person. Conditions: po.
Description: The compound was tested in vivo for activity against adjuvant-induced arthritis in rat after peroral administration after peroral administration
Assay [9] relates to Rattus norvegicus. Description: The effective dose in vivo for activity against carrageenan induced paw edema in rat after administering perorally. Type of assay: functional.
In assay [10] the test system is Rattus norvegicus. The experiment in a line: Under dose in vivo for activity against carrageenan induced paw edema in rat after administering perorally. Type of assay: functional.

In general, IC50 refers to the concentration that inhibits the measured activity by half. Read a low IC50 as greater potency. Broadly, the ED50 is the dose at which the effect has come halfway, by size or by number of responders.

Chain of Prostaglandin G/H synthase 1 (P23219 whole entry): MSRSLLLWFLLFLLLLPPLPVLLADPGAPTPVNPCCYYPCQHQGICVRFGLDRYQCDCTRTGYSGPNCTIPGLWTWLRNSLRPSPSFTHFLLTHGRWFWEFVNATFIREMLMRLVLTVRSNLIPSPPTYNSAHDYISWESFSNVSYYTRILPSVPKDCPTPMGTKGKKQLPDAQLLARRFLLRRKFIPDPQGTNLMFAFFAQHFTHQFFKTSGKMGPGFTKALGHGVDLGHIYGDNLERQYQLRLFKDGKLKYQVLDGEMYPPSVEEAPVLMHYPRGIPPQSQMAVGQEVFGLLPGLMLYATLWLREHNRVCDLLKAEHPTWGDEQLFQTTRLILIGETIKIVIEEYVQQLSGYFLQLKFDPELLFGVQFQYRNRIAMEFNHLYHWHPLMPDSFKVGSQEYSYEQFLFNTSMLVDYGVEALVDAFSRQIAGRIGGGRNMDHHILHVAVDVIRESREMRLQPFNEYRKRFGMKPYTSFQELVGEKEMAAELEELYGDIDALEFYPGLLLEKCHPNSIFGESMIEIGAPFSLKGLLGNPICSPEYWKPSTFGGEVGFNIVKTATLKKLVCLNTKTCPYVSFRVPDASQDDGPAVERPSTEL

Take `Cc1nc(-c2ccc(F)cc2)c(-c2ccc(S(N)(=O)=O)c(F)c2)o1`: the IC50 in assay [1] was 40 nM; in assay [2], 40 µM.
As to `CC(C)c1nc(C2CCCCC2)c(-c2ccc(S(N)(=O)=O)c(F)c2)o1`, the IC50 in [1] was 600 nM; in assay [2], 29.7 µM.
As for `COc1ccc2c(c1)c(CC(=O)O)c(C)n2C(=O)c1ccc(Cl)cc1` [INDOMETHACIN], the median effective dose (ED50) was 0.13 mg/kg in the assay on Rattus norvegicus [3], 1.6 mg/kg with Rattus norvegicus [4], 3.1 mg/kg with Rattus norvegicus [5] and 1.4 mg/kg in the assay on Rattus norvegicus [6]. Also, in the assay on Rattus norvegicus [7], the UD50 came out at 3.4 mg/kg.
For `Cc1ccc(-c2cc(C(F)(F)F)nn2-c2ccc(S(N)(=O)=O)cc2)cc1` [CELECOXIB], the ED50 with Rattus norvegicus [4] was found to be 2.8 mg/kg; in the assay filed under Rattus norvegicus [8], 0.37 mg/kg. In the assay with Rattus norvegicus [7], the UD50 is greater than 200 mg/kg.
`Cc1nc(C2CCCCC2)c(-c2ccc(S(N)(=O)=O)c(N)c2)o1`: the IC50 in [1] is 930 nM; in assay [2], greater than 100 µM.
`Cc1nc(C2CCCCC2)c(-c2ccc(S(N)(=O)=O)c(Cl)c2)o1` displayed an IC50 in [2] greater than 100 µM.
With `Cc1nc(-c2ccc(C)s2)c(-c2ccc(S(N)(=O)=O)c(F)c2)o1`, the values for the IC50 in assay [1] and in [2] were 26 nM and 25 µM, respectively.
On to `CCc1nc(C2CCCCC2)c(-c2ccc(S(N)(=O)=O)c(F)c2)o1`, for which the values for the IC50 in [1] and in assay [2] were 120 nM and 47 µM, respectively.
Regarding `Cc1nc(C2CCCCC2)c(-c2ccc(S(N)(=O)=O)c(C)c2)o1`, in assay [2], the 50% inhibitory concentration (IC50) is greater than 100 µM.
For `Cc1nc(C2CCCCC2)c(-c2ccc(S(N)(=O)=O)c(O)c2)o1`, the IC50 was 19700 nM in assay [1] and greater than 100 µM in assay [2].
Turning to `COc1cc(-c2oc(C)nc2C2CCCCC2)ccc1S(N)(=O)=O`, the results for the IC50 in assay [1] and in [2] were greater than 100000 nM and greater than 100 µM, respectively.
With `Cc1nc(-c2ccc(C)s2)c(-c2ccc(S(N)(=O)=O)cc2)o1`, the 50% inhibitory concentration (IC50) in assay [1] was found to be 12 nM; in assay [2], 1.8 µM.
As for `Cc1nc(C2CCCCC2)c(-c2ccc(S(N)(=O)=O)c(F)c2)o1` [TILMACOXIB], the IC50 in assay [1] was 85 nM; in assay [2], greater than 100 µM. Moreover, in the assay on Rattus norvegicus [9], the median effective dose (ED50) was 4.4 mg kg-1 [middle of 4 runs]. In addition, the UD50 with Rattus norvegicus [10] is greater than 300 mg/kg.
